Activity calls are given as the source filed them. How the calls were made is not given here.
Biological target: Caspase-3 (Homo sapiens) + Caspase-9 (Homo sapiens) (UniProt P42574+P55211)
Assay: modulators of CASP3 activation by CASP9, concentration-response, specificity counterscreen for Apaf-1 activator project, biochemical, fluorescence readout, leucine zipper CASP9, ultra-high-throughput screening actives (AID 588573)
Details: LZ-caspase-9/caspase-3 coupled fluorogenic activity assay

Caspase-3 (Homo sapiens) + Caspase-9 (Homo sapiens), sequence (P42574 whole entry, looked up): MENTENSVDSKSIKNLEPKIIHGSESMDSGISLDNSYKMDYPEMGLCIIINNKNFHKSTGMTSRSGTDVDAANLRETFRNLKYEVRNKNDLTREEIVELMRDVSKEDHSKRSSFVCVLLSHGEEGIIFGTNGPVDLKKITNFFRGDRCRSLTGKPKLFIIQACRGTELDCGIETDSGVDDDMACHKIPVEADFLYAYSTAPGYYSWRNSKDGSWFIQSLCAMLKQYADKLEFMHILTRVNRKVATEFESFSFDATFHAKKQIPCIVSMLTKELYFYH
Caspase-3 (Homo sapiens) + Caspase-9 (Homo sapiens), sequence (P55211 whole entry, looked up): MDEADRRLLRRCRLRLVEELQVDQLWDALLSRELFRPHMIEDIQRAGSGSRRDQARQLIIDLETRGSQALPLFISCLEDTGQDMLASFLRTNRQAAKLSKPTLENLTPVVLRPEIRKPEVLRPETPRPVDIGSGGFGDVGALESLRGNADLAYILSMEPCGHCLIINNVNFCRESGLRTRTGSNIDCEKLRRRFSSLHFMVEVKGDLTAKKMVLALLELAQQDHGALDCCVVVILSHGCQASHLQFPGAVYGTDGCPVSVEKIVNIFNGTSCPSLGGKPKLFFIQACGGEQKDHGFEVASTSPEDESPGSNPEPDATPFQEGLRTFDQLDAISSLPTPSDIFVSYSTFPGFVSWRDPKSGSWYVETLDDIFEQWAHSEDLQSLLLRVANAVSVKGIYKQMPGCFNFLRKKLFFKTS

| SMILES | EC50 | IC50 (inhibition of caspase signal) |
| --- | --- | --- |
| CC(C)(CS(=O)(=O)[O-])NC(=O)CC[N+](C)(C)CCO | > 100 µM (inactive) | – |
| O=C1C2(CCCC13COC(c1ccc(O)cc1)OC3)COC(c1ccc(O)cc1)OC2 (centres undefined) | > 100 µM (inactive) | – |
| C=CC1=C(C(=O)O)N2C(=O)[C@@H](NC(=O)/C(=N\OCC(=O)O)c3csc(N)n3)[C@H]2SC1 | > 100 µM (inactive) | – |
| COc1ccc([N+](=O)[O-])cc1NC(=O)CCS(=O)(=O)c1ccc(Br)cc1 | > 100 µM (inactive) | – |
| Cc1cc(C)n(CC(C)C(=O)O)n1 (centres undefined) | > 100 µM (inactive) | – |
| N#CCCn1cc(C(CC(=O)c2ccc(Br)cc2)C(=O)O)c2ccccc21 (centres undefined) | > 100 µM (inactive) | – |
| CC(Cc1c[nH]c2ccccc12)C(=O)O (centres undefined) | > 100 µM (inactive) | – |
| COc1ccc(/C=C2\SC(=S)N(CCC(=O)Nc3ccc(C(=O)O)cc3)C2=O)cc1OC | – | 14.6 µM |
| CCN(CC)CCOc1ccc2c(c1)C(=NNC(=O)c1ccccn1)c1cc(OCCN(CC)CC)ccc1-2 | > 100 µM (inactive) | – |
| CCOc1ccccc1NC(=O)CCS(=O)(=O)c1ccc(Br)cc1 | > 100 µM (inactive) | – |
| COC(=O)c1ccccc1-c1ccc(/C=C2\C(=O)N(c3ccccc3)N=C2c2ccccc2)o1 | > 100 µM (inactive) | – |
| CCc1ccc(N=C2NC(=O)/C(=C/c3cc(Br)c(OCC(=O)O)c(OC)c3)S2)cc1 | – | 23.6 µM |
| O=C(Nc1nc2ccsc2c(=O)s1)c1ccco1 | > 100 µM (inactive) | – |
| CC(/C=C\c1cccnc1)=C/C(=O)O | > 100 µM (inactive) | – |
| O=C(CCS(=O)(=O)c1ccc(Br)cc1)NCc1ccco1 | > 100 µM (inactive) | – |
| CC(CNc1ccccc1O)C(=O)O (centres undefined) | > 100 µM (inactive) | – |

The remaining lines, values ahead:

| EC50 | IC50 (inhibition of caspase signal) | SMILES |
| --- | --- | --- |
| > 100 µM (inactive) | – | C=C(C)C(=O)Nc1cccc(C2=NOC3(C2)C[C@@H](C(N)=O)N(C(=O)CCCCC)C3)c1 (some centres undefined) |
| > 100 µM (inactive) | – | CCOc1ccc(C(=O)/C=C/Nc2ccc(S(=O)(=O)N=C(N)N)cc2)cc1 |
| > 100 µM (inactive) | – | C=C(C)C(=O)Nc1cccc(C2=NOC3(C2)C[C@H](C(N)=O)N(C(=O)/C=C/C)C3)c1 (some centres undefined) |
| > 100 µM (inactive) | – | C=C(C)C(=O)Nc1cccc(C2=NOC3(C2)C[C@@H](C(N)=O)N(C(=O)C(=C)C)C3)c1 (some centres undefined) |
| > 100 µM (inactive) | – | C=C(C)C(=O)Nc1cccc(C2=NOC3(C2)C[C@H](C(N)=O)N(C(=O)c2ccccc2)C3)c1 (some centres undefined) |
| > 100 µM (inactive) | – | C=C(C)C(=O)Nc1cccc(C2=NOC3(C2)C[C@@H](C(N)=O)N(C(=O)/C=C/C=C/C)C3)c1 (some centres undefined) |
| > 100 µM (inactive) | – | C=C(C)C(=O)Nc1cccc(C2=NOC3(C2)C[C@@H](C(N)=O)N(C(=O)/C(C)=C/C)C3)c1 (some centres undefined) |
| > 100 µM (inactive) | – | COc1cc([N+](=O)[O-])ccc1NC(=O)COC(=O)c1ccc(NC(N)=O)cc1 |
| > 100 µM (inactive) | – | C=CC1=C(C(=O)O)N2C(=O)[C@@H](NC(=O)/C(=N/OCC(=O)O)c3csc(N)n3)[C@H]2SC1 |
| – | 15.6 µM | N#C/C(=C\c1ccc(OCc2ccc(Cl)cc2)cc1)C(=O)Nc1cccc(C(=O)O)c1 |
| > 100 µM (inactive) | – | C=C(C)C(=O)Nc1cccc(C2=NOC3(C2)C[C@H](C(N)=O)N(C(=O)c2ccccc2C(=O)c2ccccc2)C3)c1 (some centres undefined) |
| > 100 µM (inactive) | – | C=C(C)C(=O)Nc1cccc(C2=NOC3(C2)C[C@@H](C(N)=O)N(C(=O)c2cc([N+](=O)[O-])cc([N+](=O)[O-])c2C)C3)c1 (some centres undefined) |
| > 100 µM (inactive) | – | C=C(C)C(=O)Nc1cccc(C2=NOC3(C2)C[C@@H](C(N)=O)N(C(=O)/C=C/CC)C3)c1 (some centres undefined) |

— PubChem BioAssay AID588573 (Sanford-Burnham Center for Chemical Genomics, 2011)
